Measured values taken from paper PMC10487658, “Identification and Characterization of RK22, a Novel Antimicrobial Peptide from Hirudinaria manillensis against Methicillin Resistant Staphylococcus aureus” (International Journal of Molecular Sciences, 2023).
No end group written: not given here.

Key:
[1] = tested on: HEK293T cells; assay: Cytotoxicity assay (CCK8); format: cell-based; conditions: up to 400 μg/mL, 24 h, CCK8, absorbance 450 nm, 3 independent experiments
Experimental: In the cytotoxicity assay, HEK293T cells were cultured with Dulbecco’s Modified Eagle Medium (DMEM) (Corning, New York, NY, USA) consisting of 10% fetal bovine serum (FBS, Corning, New York, NY, USA) and 1% penicillin-streptomycin liquid (Solarbio, Beijing, China). After digestion using trypsin (Gibco, New York, NY, USA), the cell suspension (100 μL, 1 × 10^5 cells/mL, […]) was inoculated into each well of a 96-well plate. Once the cells were completely adherent, the supernatant was discarded, and fresh medium with or without 100 μL of RK22 (final concentration 6.25–400 μg/mL) was added to the 96-well plates. […] The plate was then incubated at 37 °C for an additional 1–4 h, with absorbance then measured at 450 nm. […]
(§1) Figure S1. […] After incubation for 60 min at 37°C, cells were centrifuged (3,500 rpm, 5 min) and the absorbance of the supernatant was measured at 540 nm. The value for “zero hemolysis” was determined using sterile saline (negative control, NC), while 100% hemolysis was established using 1% (v/v) Triton X-100 (PC: positive control). Hemolysis of testing sample was calculated as the percentage of Triton X-100-induced hemolysis. […] Cell viability was determined by adding 10 μl CCK8 in to the cells and incubated for 1-4 h. The absorbance at 450 nm of the solution was measured with a microplate reader. […]

[2] = tested on: mouse red blood cells; assay: Hemolysis assay; format: cell-based; conditions: up to 400 μg/mL, 37 °C, 1 h, absorbance 540 nm, 1% Triton X-100 = 100%, 3 independent experiments
Experimental: The hemolysis and cytotoxicity assays were performed according to previous research with some modifications. In the hemolysis assay, mouse blood was collected in anticoagulant tubes, centrifuged (1000× g, 5 min), and washed with normal saline three times to obtain red blood cells. The red blood cells were then resuspended to prepare a 10% red blood cell suspension. The suspension was mixed with an equal volume solution of RK22 (final concentration 0–400 μg/mL), then incubated at 37 °C for 1 h and centrifuged (1000× g, 10 min). After this, 150 μL of the supernatant was transferred to a new 96-well plate, with absorbance then measured at 540 nm. Additionally, 1% Triton X-100 and sterile saline treatment groups accounted for 100% and 0% hemolysis, respectively.
Supplementary Figures and Figure legends
as §1

[3] = tested on: washed platelets; assay: Platelet activity assay, flow cytometry; format: cell-based; conditions: mouse washed platelets, 20, 10, 5, 2.5 μg/mL, 10 min, P-selectin
Experimental: Platelets were isolated from the mice as described in a previous study with minor modifications. The effect of RK22 and LL-37 on platelet activity was detected by flow cytometry. Mouse blood was mixed with Tyrode’s buffer A (137 mM NaCl, 2 mM KCl, 0.3 mM NaH2PO4, 12 mM NaHCO3, 5.5 mM glucose, 0.35% BSA, 1 mM MgCl2, and 0.2 mM EDTA, pH 6.5) and centrifuged (150× g, 10 min, room temperature) to obtain platelet-rich plasma (PRP), which was then pelleted (400× g, 5 min, room temperature), washed with Tyrode’s buffer A, and finally resuspended in Tyrode’s buffer B (137 mM NaCl, 2 mM KCl, 0.3 mM NaH2PO4, 12 mM NaHCO3, 5.5 mM glucose, 0.35% BSA and 2 mM CaCl2, pH 7.4). Antibodies against P-selectin (Biolegend, San Diego, CA, USA) were added to the platelets, followed by incubation for 10 min at room temperature. Samples (20, 10, 5, and 2.5 μg/mL) or normal saline were added, respectively, and analyzed by flow cytometry (BD, LSRFortessa^TM, Franklin Lakes, NJ, USA).

[4] = tested on: S. aureus (ATCC6538); format: in vitro ADME, Staphylococcus aureus
Experimental: (§2) We determined the stability of RK22 in plasma according to the previously reported method. Briefly, an equal volume of RK22 was mixed with human plasma and diluted to a concentration of 5 mg/mL. The MICs of RK22 against S. aureus ATCC6538 and methicillin-resistant S. aureus MRSA-Z were determined after incubation at 37 °C for different times (0, 2, 4, 6, 8, and 10 h).

[5] = tested on: MRSA-Z; format: in vitro ADME, Staphylococcus aureus
Experimental: as §2

[6] = tested on: S. aureus (ATCC6538); assay: microbe, parasite or virus in culture; format: cell-based, Staphylococcus aureus
Experimental: (§3) The bacterial strains used in this study included Pseudomonas aeruginosa (P. aeruginosa, ATCC27853), Acinetobacter baumannii (A. baumannii, ATCC19606), Escherichia coli (E. coli, ATCC8739), and S. aureus (ATCC6538, two clinically isolated strains (SA220823 and SA15772)), and three clinically isolated methicillin-resistant strains (MRSA-Z, MRSA11, and MRSA22). All strains were grown in Luria-Bertani (LB) broth.
(§4) The minimum inhibitory concentration (MIC) for all strains was determined using the […] assay based on a previous study with minor modifications. Initially, strains in the exponential phase were diluted to a concentration of 2 × 10^5 CFU/mL using RPMI 1640 medium (Corning, New York, NY, USA). Next, 100 μL of the bacterial suspension was mixed with 100 μL of the sample solution (final concentration 0–200 μg/mL in RPMI 1640 medium) in 96-well plates. The plates were then incubated at 37 °C for 12–16 h. After incubation, the absorbance at 600 nm was measured, and the MIC was determined as the lowest concentration of the test sample in which no bacterial growth was detected in the well.

[7] = tested on: SA15772 (clinically isolated S. aureus); assay: microbe, parasite or virus in culture; format: cell-based, Staphylococcus aureus; conditions: SA15772 (clinically isolated)
Experimental: as §3, §4

[8] = tested on: MRSA11 (clinically isolated methicillin-resistant S. aureus); assay: microbe, parasite or virus in culture; format: cell-based, Staphylococcus aureus; conditions: MRSA11 (clinically isolated methicillin-resistant)
Experimental: as §3, §4

[9] = tested on: SA220823 (clinically isolated S. aureus); assay: microbe, parasite or virus in culture; format: cell-based, Staphylococcus aureus; conditions: SA220823 (clinically isolated)
Experimental: as §3, §4

With RKYKEKKDKSQNKKKKRKCMIL [RK22] the cytotoxicity [1] was “did not demonstrate any noticeable cytotoxic effects”, the hemolytic activity [2] was “did not exhibit any obvious hemolytic activity” and the platelet activation [3] was “did not exert any such effects”. The “MIC after incubation in plasma” value [4] was 6.25 µg/mL, the “MIC after incubation in plasma” value [5] was 6.25 µg/mL and the MIC [6] was 6.25 µg/mL. It also gave an MIC [7] of 12.5 µg/mL, an MIC [8] of 6.25 µg/mL and an MIC [9] of 12.5 µg/mL.
